Measured values published in US20260028340A1 (Supernus Pharmaceuticals, Inc., priority 2023, published 2026).

Experiment: Pharmacokinetic data in CD-1 mice after oral administration
Type: in vivo
Conditions: 10 mg/kg molar equivalent to Cmpd. A (nominal), serum, analyte: A
Protocol: Pharmacokinetic (PK) data was generated using twelve CD-1 mice treated with oral administration of the compound with a dose volume of 10 mg/kg (a molar equivalent to 5-(4-chlorophenyl)-2,3-dihydroimidazo[1,2-b]isoindol-5-ol (“Compound A,” “Cmpd. A,” or “A”)), and a nominal strength of 1 mg/mL. The serum was analyzed in triplicate with 200 mM K2EDTA anticoagulant.

Structure (SMILES) | PK parameters / level of analyte A (Cmpd. A) after dosing the derivative
CC(C)C(NC(=O)OC(C)(C)C)C(=O)N1CCN=C1c1ccccc1C(=O)c1ccc(Cl)cc1 (stereo not drawn) | NC (BLQ at all the time points)
O=C(c1ccc(Cl)cc1)c1ccccc1C1=NCCN1C(=O)c1ccc2c(c1)OCO2 [II-4, benzo[d][1.3]dioxol-5-yl(2-(2-(4-chlorobenzoyl)phenyl)-4,5-dihydro-1H-imidazol-1-yl) methanone] | NC (BLQ at all the time points)
CC(C)(C(=O)N1CCN=C1c1ccccc1C(=O)c1ccc(Cl)cc1)C(=O)N1CCN=C1c1ccccc1C(=O)c1ccc(Cl)cc1 [III-1, 1,3-bis(2-(2-(4-chlorobenzoyl)phenyl)-4,5-dihydro-1H-imidazol-1-yl)-2,2-dimethylpropane-1,3-dione] | NC (BLQ at all the time points)

Same assay, conditions: mouse, 10 mg/kg molar equivalent to Cmpd. A (nominal), serum, analyte: dosed derivative (DV)

Structure (SMILES) | AUC(0-t) [ng·h/mL] | Cmax [ng/mL] | Tmax [min] | AUC(0-inf) [ng·h/mL] | half-life [min]
CC(C)C(NC(=O)OC(C)(C)C)C(=O)N1CCN=C1c1ccccc1C(=O)c1ccc(Cl)cc1 (stereo not drawn) | 56.5 | 61.2 | 15 |  | 
Clc1ccc(C2(OCc3ccccc3)c3ccccc3C3=NCCN32)cc1 (stereo not drawn) [Compound I-1, 5-(benzyloxy)-5-(4-chlorophenyl)-2,5-dihydro-3H-imidazo[2,1-a]isoindole] | 137 | 68.2 | 15 | 141 | 96
COc1ccc(COC2(c3ccc(Cl)cc3)c3ccccc3C3=NCCN32)cc1 (stereo not drawn) [Compound I-2, 5-(4-chlorophenyl)-5-((4-methoxybenzyl)oxy)-2,5-dihydro-3H-imidazo[2,1-a]isoindole] | 260 | 234 | 15 | 268 | 108
C=CCOC1(c2ccc(Cl)cc2)c2ccccc2C2=NCCN21 (stereo not drawn) [Compound I-3, 5-(allyloxy)-5-(4-chlorophenyl)-2,5-dihydro-3H-imidazo[2,1-a]isoindole] | 73.7 | 52.9 | 30 | 88.9 | 102
COCCOC1(c2ccc(Cl)cc2)c2ccccc2C2=NCCN21 (stereo not drawn) [Compound I-4, 5-(4-chlorophenyl)-5-(2-methoxyethoxy)-2,5-dihydro-3H-imidazo[2,1-a]isoindole] | 568 | 475 | 15 | 586 | 108
COC1(c2ccc(Cl)cc2)c2ccccc2C2=NCCN21 (stereo not drawn) [Compound I-6, 5-(4-chlorophenyl)-5-methoxy-2,5-dihydro-3H-imidazo[2,1-a]isoindole] | 64.7 | 72 | 30 | 66.6 | 51
Clc1ccc(C2(OCc3ccc4c(c3)OCO4)c3ccccc3C3=NCCN32)cc1 (stereo not drawn) [Compound I-7, 5-(benzo[d][1.3]dioxol-5-ylmethoxy)-5-(4-chlorophenyl)-2,5-dihydro-3H-imidazo[2,1-a]isoindole] | 307 | 211 | 15 | 358 | 85.2
CCOC1(c2ccc(Cl)cc2)c2ccccc2C2=NCCN21 (stereo not drawn) [Compound I-8, 5-(4-chlorophenyl)-5-ethoxy-2,5-dihydro-3H-imidazo[2,1-a]isoindole] | 48.5 | 32 | 30 | 72.4 | 127
CC(C)=CCOC1(c2ccc(Cl)cc2)c2ccccc2C2=NCCN21 (stereo not drawn) [Compound I-9, 5-(4-chlorophenyl)-5-((3-methylbut-2-en-1-yl)oxy)-2,5-dihydro-3H-imidazo[2,1-a]isoindole] | 55.1 | 124 | 15 | 59.8 | 85.2
CC(C)COC1(c2ccc(Cl)cc2)c2ccccc2C2=NCCN21 (stereo not drawn) [Compound I-10, 5-(4-chlorophenyl)-5-isobutoxy-2,5-dihydro-3H-imidazo[2,1-a]isoindole] | 94.6 | 82.5 | 15 | 112 | 97.8
CC(C)=CCC/C(C)=C/COC1(c2ccc(Cl)cc2)c2ccccc2C2=NCCN21 (stereo not drawn) [Compound I-11, (E)-5-(4-chlorophenyl)-5-((3,7-dimethylocta-2,6-dien-1-yl)oxy)-2,5-dihydro-3H-imidazo[2,1-a]isoindole] | 39.7 | 27.7 | 15 | 44 | 69.6
COCCOCCOCCOC1(c2ccc(Cl)cc2)c2ccccc2C2=NCCN21 (stereo not drawn) [Compound I-12, 5-(4-chlorophenyl)-5-(2-(2-(2-methoxyethoxy)ethoxy)ethoxy)-2,5-dihydro-3H-imidazo[2,1-a]isoindole] | 68.9 | 67.6 | 30 |  | 
CC(C)=CCC/C(C)=C/CC/C(C)=C/COC1(c2ccc(Cl)cc2)c2ccccc2C2=NCCN21 (stereo not drawn) [Compound I-13, 5-(4-chlorophenyl)-5-(((2E,6E)-3,7,11-trimethyldodeca-2,6,10-trien-1-yl)oxy)-2,5-dihydro-3H-imidazo[2,1-a]isoindole] | 337 | 201 | 30 |  | 
O=C(c1ccc(Cl)cc1)c1ccccc1C1=NCCN1C(=O)c1ccccc1 [II-1, (2-(1-benzoyl-4,5-dihydro-1H-imidazol-2-yl)phenyl) (4-chlorophenyl) methanone] | 19.8 | 43 | 15 | 21.8 | 100
COc1ccc(C(=O)N2CCN=C2c2ccccc2C(=O)c2ccc(Cl)cc2)cc1 [II-2, (2-(2-(4-chlorobenzoyl)phenyl)-4,5-dihydro-1H-imidazol-1-yl) (4-methoxyphenyl) methanone] | 611 | 170 | 30 | 624 | 81.6
Cc1ccc(C(=O)N2CCN=C2c2ccccc2C(=O)c2ccc(Cl)cc2)cc1 [II-3, (2-(2-(4-chlorobenzoyl)phenyl)-4,5-dihydro-1H-imidazol-1-yl) (p-tolyl) methanone] | 163 | 81.6 | 15 | 182 | 132
O=C(c1ccc(Cl)cc1)c1ccccc1C1=NCCN1C(=O)c1ccc2c(c1)OCO2 [II-4, benzo[d][1.3]dioxol-5-yl(2-(2-(4-chlorobenzoyl)phenyl)-4,5-dihydro-1H-imidazol-1-yl) methanone] | 236 | 50.3 | 15 | 238 | 72
CN1CCN(C(=O)N2CCN=C2c2ccccc2C(=O)c2ccc(Cl)cc2)CC1 [II-6, (2-(2-(4-chlorobenzoyl)phenyl)-4,5-dihydro-1H-imidazol-1-yl) (4-methylpiperazin-1-yl) methanone] | 531 | 752 | 15 | 548 | 51
CC(C)(C(=O)N1CCN=C1c1ccccc1C(=O)c1ccc(Cl)cc1)C(=O)N1CCN=C1c1ccccc1C(=O)c1ccc(Cl)cc1 [III-1, 1,3-bis(2-(2-(4-chlorobenzoyl)phenyl)-4,5-dihydro-1H-imidazol-1-yl)-2,2-dimethylpropane-1,3-dione] | 366 | 238 | 15 | 369 | 72

Experiment: as above
Type: in vivo
Conditions: mouse, serum, Table 7: CD-1 mice, nominal dose 5.10 mg/kg Cmpd. A or 6.57-8.40 mg/kg DV salt, analyte: dosed derivative (DV)

Structure (SMILES) | AUC(0-inf) [ng·h/mL] | AUC(0-t) [ng·h/mL] | Cmax [ng/mL] | Tmax [min] | half-life [min]
FC(F)(F)c1ccc(COC2(c3ccc(Cl)cc3)c3ccccc3C3=NCCN32)cc1 (stereo not drawn) [Compound I-14, 5-(4-chlorophenyl)-5-((4-(trifluoromethyl)benzyl)oxy)-2,5-dihydro-3H-imidazo[2,1-a]isoindole] | 215 | 183 | 56.1 | 30 | 163
COc1ccc(COC2(c3ccc(Cl)cc3)c3ccccc3C3=NCCN32)cc1OC (stereo not drawn) [Compound I-15, 5-(4-chlorophenyl)-5-((3,4-dimethoxybenzyl)oxy)-2,5-dihydro-3H-imidazo[2,1-a]isoindole] | 16 | 12.7 | 17.8 | 20 | 29.8
Clc1ccc(COC2(c3ccc(Cl)cc3)c3ccccc3C3=NCCN32)cc1 (stereo not drawn) [Compound I-16, 5-((4-chlorobenzyl)oxy)-5-(4-chlorophenyl)-2,5-dihydro-3H-imidazo[2,1-a]isoindole] | 224 | 174 | 53.3 | 35 | 194
CC(C)/C=C/COC1(c2ccc(Cl)cc2)c2ccccc2C2=NCCN21 (stereo not drawn) [Compound I-17, (E)-5-(4-chlorophenyl)-5-((4-methylpent-2-en-1-yl)oxy)-2,5-dihydro-3H-imidazo[2,1-a]isoindole] | 33.2 | 27.6 | 25.7 | 15 | 78
FC(F)(F)c1ccc(/C=C/COC2(c3ccc(Cl)cc3)c3ccccc3C3=NCCN32)cc1 (stereo not drawn) [Compound I-18, (E)-5-(4-chlorophenyl)-5-((3-(4-(trifluoromethyl)phenyl)allyl)oxy)-2,5-dihydro-3H-imidazo[2,1-a]isoindole] | 792 | 677 | 187 | 30 | 237
Clc1ccc(C2(OCC3OCCO3)c3ccccc3C3=NCCN32)cc1 (stereo not drawn) [Compound I-19, 5-((1,3-dioxolan-2-yl)methoxy)-5-(4-chlorophenyl)-2,5-dihydro-3H-imidazo[2,1-a]isoindole] |  | 2.04 | 4.27 | 20 | 
